The values below are quoted from earlier work in patent publication US9839606B2, “Formulation for treatment of hairs” (OSMA Cosmetics & Laboratories AG, priority 2013, dated 2017).

In series [1] the test system is human dermal papilla cells (DPCs).

With epigallocatechin-3-gallate [EGCG], in the series on hair follicles, the “hair growth in hair follicles ex vivo culture” value was “promoted hair growth”. Besides, in series [1], the “proliferation of cultured DPCs” value is on record as “promoted”.
